Test results taken from US11278550B2, “Compositions and methods for the treatment of Prader-Willi syndrome” (Duke University, priority 2016, dated 2022).

How the values were obtained:
[1] = test system: human PWS fibroblasts; assay: Chromatin immunoprecipitation (ChIP-qPCR) of H3K9me2/H3K9me3; format: cell-based; conditions: in words
Procedure: Histone methylations on the SNRPN locus in human fibroblasts were analyzed by chromatin immunoprecipitation assay (ChIP) using the protocol as previously reported (see Fulmer-Smentek et al., Human molecular genetics 10, 645-652 (2001)). ChIP assay was performed using ChIP-IT Express magnetic kit (Active Motif) according to the manufacturer's instructions with modification for the fixation and reverse-crosslinking steps. Briefly, native chromatin was prepared without fixation and enzymatic digestions to average 150-500 bp sized chromatin. 20 μg of chromatin was added to the specific antibodies (2 μg) or species control isotype antibodies for each immunoprecipitation reaction. The antibody-chromatin complexes were bound to protein G magnetic beads for recovering chromatin immunoprecipitates. RNase- and proteinase K-treated DNA was purified using PCR purification columns (Promega). DNA recovery was quantified by real time PCR performed on the LightCycler480 instrument (Roche) using SsoAdvanced Universal SYBR green Supermix (Biorad). Antibodies were anti-rabbit acetylated H3 (Millipore 06-599), anti-mouse monoclonal Histone H3 dimethyl K9 (Abcam 1220) and Histone H3 trimethyl K9 (Millipore, 07-442) antibodies. qPCR reactions were performed with the following cycling parameters: at 95° C./5 min followed by 40 cycles of 95° C./30 sec, 60° C./60 sec. Data was normalized to the total input.

[2] = test system: PWS-IC; assay: Bisulfite genomic sequencing of PWS-IC, human PWS cells; format: cell-based
Procedure: Genomic DNA was isolated from human PWS fibroblasts or mouse tissues. DNA (1 μg) was then treated by bisulfite using the Epi-Tect bisulfite kit (Qiagen), and 125 ng input DNA was used per PCR amplification. PCR products were sub-cloned into pGEM-T easy vector (Promega) and an average of 15 clones were sequenced. DNA sequencing results were analyzed using BISMA web-based analysis platform with a setting for individual clones with <95% bisulfite conversion and <90% sequence identity to be excluded in the analysis.

[3] = test system: maternal Snrpn-EGFP MEFs; assay: High content screening / concentration response of Snrpn-EGFP unsilencing; format: cell-based, mouse; conditions: mS-EGFP/p+ MEFs
Procedure: High content screenings of small molecules were performed as described in Huang, et al. Nature 481, 185-189 (2012). HCS comprises a 384-well high-content screen using primary mouse embryonic fibroblasts (MEFs) from m^S-EGFP/p^+, and searched for drug-like molecules that could unsilence the maternal S-EFGP allele. […] To perform the screen, primary MEFs were isolated from E12.5-14.5 embryos of m^S-EGFP/p^+ and cultured for 7 days in Dulbecco's modified Eagle's media supplemented with 10% fetal bovine serum, 100 Units/mL penicillin and 100 μg/mL streptomycin, at 37° C. and 5% CO2. One day before treatment with small molecules, 5,000 cells per well were plated onto 384-well plates. The cells were then treated with compounds (10 μM for 72 hours) from multiple small molecule libraries (FIG. 1f and FIG. 2). In total, 9,157 small molecules were screened in quadruplicate, normalizing values to vehicle-treatment (0.2% DMSO) (Table 1). The unsilencing of Snrpn-EGFP was determined three days after drug treatment. The immunofluorescence-processed fibroblasts were imaged for Hoechst and Alexa Fluor 488 fluorescence using a BD Pathway 855 high content imaging microscope. Antibody-enhanced Snrpn-EGPF fluorescence intensity was determined in drug-treated cells individually and normalized to cells treated with vehicle control. In order to identify potentially active compounds, an arbitrary cutoff of 125% was used where 100% indicates basal fluorescence in the vehicle-treated MEFs. Analysis was performed using Cell Profiler with custom macro and algorithms. Potential active drugs were defined as the increase in drug-mediated EGFP fluorescence consistently observed across quadruplicate wells and minimal or no cytotoxicity measured by Hoechst-stained nuclear structure (and the changes in total number of cells). After initial validation of all potential active drugs (e.g., to determine whether active compounds show inherent fluorescence, the wild-type fibroblasts were also treated), only effective hit compounds further validated in dose-response tests to determine relative efficacy (Emax) and potency (EC50). The dose-response results were analyzed by using Graphpad Prism (Graphpad Software). The calculated EC50 values (potencies) and estimated Emax (efficacy, Y-value top plateau) enabled comparative analyses of the relative potency and efficacy of the identified compounds.
Three days after drug treatment, the cells were fixed at 4% paraformaldehyde at room temperature for 10 min, followed by rinsing with 1× PBS. The cells were permeabilized with 0.5% Triton X-100 in 1× PBS at room temperature for 10 min, followed by blocking with 5% normal goat serum in 0.1% Triton X-100 in 1× PBS at room temperature for 30 minutes. Primary rabbit anti-GFP antibody (1:1000, Novus Biologicals cat. no. NB100-1770) was incubated at 4° C. overnight. The next day, the cells were rinsed with 1× PBS and incubated with goat anti-rabbit Alexa Fluor 488 (Invitrogen cat. no. A-11008) and Hoechst at room temperature. One hour after incubation, the cells were rinsed with 1× PBS and imaged for Hoechst and Alexa Fluor 488 fluorescence using a BD Pathway 855 high content imaging microscope.
It is not feasible to design a screen for noncoding RNA. Alternatively, SNRPN/Snprn is paternally expressed but maternally silenced in all human and mouse tissues. The allele-specific expression of human SNRPN is regulated by the PWS-IC, which also controls the expression of host transcripts for SnoRNAs, including the SNORD116 cluster between SNRPN and UBE3A. see Le Meur, E. et al., Dev. Biol. 286, 587-600 (2005). Thus, the Snrpn-EGFP fusion protein (hereafter S-EGFP) was used as a marker for high content screening (HCS). It was determined that small molecules that can unsilence S-EGFP would also be effective in reactivating the host transcript of SNORD116. […]

Question: Which “level of H3K9me2 (and H3K9me3) in the PWS-IC” value [1] does the source give for `Nc1ncn([C@H]2C[C@H](O)[C@@H](CO)O2)c(=O)n1` [5-Aza-dC, 5-aza deoxycytidine, reference compound] here?
Answer: The value was “reduced”.

Question: What about the “DNA methylation of the PWS-IC” value [2] of the same compound?
Answer: The value was “significantly decreased”.

Question: `COc1cc2nc(N3CCCN(C)CC3)nc(NC3CCN(Cc4ccccc4)CC3)c2cc1OC` [BIX01294, reference compound] was tested. Which “activation of S-EGFP” value [3] did it give?
Answer: The value was “did not have a substantial effect”.

Question: `C[S+](CC[C@H](N)C(=O)O)C[C@H]1O[C@@H](n2cnc3c(N)ncnc32)[C@H](O)[C@@H]1O` (some centres unmarked) [S-adenosyl-methionine, reference compound] was tested. Which “activation of S-EGFP” value [3] did it give?
Answer: The value was “did not have an effect”.

Question: Which “activation of S-EGFP” value [3] does the source give for `Nc1ccccc1NC(=O)c1ccc(CNC(=O)OCc2cccnc2)cc1` [entinostat, reference compound] here?
Answer: The value was “did not have an effect”.

Question: For `CC(/C=C/C(=O)NO)=C\[C@@H](C)C(=O)c1ccc(N(C)C)cc1` [trichostatin A, reference compound], which “activation of S-EGFP” value [3] is on record?
Answer: The value was “did not have an effect”.

Question: How did the “activation of S-EGFP” value [3] turn out when `CCCC(CCC)C(=O)O` [valproic acid, reference compound] was run?
Answer: The value was “did not have an effect”.

Question: For `O=C(CCCCCCC(=O)Nc1ccccc1)NO` [vorinostat, suberoylanilide hydroxamic acid, reference compound], which “activation of S-EGFP” value [3] is on record?
Answer: Its value is “did not have an effect”.
